Assays:
Human CD73 = target: T1, Human CD73 (Homo sapiens, UniProt P21589); test: CD73 Enzyme Assay; format: biochemical; details: 0.25 nM hCD73, 25 μM AMP, kinetic read at 360 nm; read-out: CD73 Enzyme Assay IC50
T1 construct: purchased R&D Systems; host or cells: CHO cells
T1 sequence (P21589 27-549): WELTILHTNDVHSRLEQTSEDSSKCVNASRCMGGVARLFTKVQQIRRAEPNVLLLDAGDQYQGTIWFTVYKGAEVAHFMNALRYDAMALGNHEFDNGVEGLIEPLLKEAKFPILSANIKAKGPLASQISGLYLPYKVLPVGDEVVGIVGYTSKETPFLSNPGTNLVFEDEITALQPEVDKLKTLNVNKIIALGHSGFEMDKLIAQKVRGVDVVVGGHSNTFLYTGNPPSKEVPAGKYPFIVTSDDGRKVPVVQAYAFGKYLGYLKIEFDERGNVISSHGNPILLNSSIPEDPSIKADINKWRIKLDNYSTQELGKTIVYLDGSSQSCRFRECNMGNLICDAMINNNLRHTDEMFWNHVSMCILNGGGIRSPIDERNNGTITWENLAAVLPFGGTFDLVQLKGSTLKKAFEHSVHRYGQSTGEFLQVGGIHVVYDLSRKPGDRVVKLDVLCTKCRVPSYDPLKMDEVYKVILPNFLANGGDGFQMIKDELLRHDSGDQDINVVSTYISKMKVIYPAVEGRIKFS

[1] = target: T2, CD73 on U138 human neuroglioma cells (Homo sapiens, UniProt P21589); test: CD73 Cell-Based Assay; details: U138 cells, AMP substrate, 2 hours at 37° C., inorganic phosphate by malachite green
T2 construct: U138 cells were obtained from ATCC and cultured in DMEM with 10% FBS; host or cells: U138 human neuroglioma cells
T2 sequence (P21589 27-549): T1 sequence (P21589 27-549)
How it was run: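 Whole U138 cells washed free of phosphate were incubated with 200 μM AMP (mixture concentration before equal-volume addition) plus compound in HEPES-buffered saline, pH 7.4, for 2 h at 37 °C, 5% CO2. Adenosine-forming activity read as inorganic phosphate released into supernatant by malachite green.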

| Compound | IC50 (Human CD73) [nM] | IC50 [1] [nM] |
| --- | --- | --- |
| O=P(O)(COC[C@H]1O[C@@H](n2ccc3c(NC4CCCC4)nc(Cl)nc32)[C@H](O)[C@@H]1O)OCC(F)(F)F [Compound 232, [(2R,3S,4R,5R)-5-[2-chloro-4-(cyclopentyl-amino)pyrrolo[2,3-d]-pyrimidin-7-yl]-3,4-dihydroxy-tetrahydro-furan-2-yl]methoxy-methyl-(2,2,2-trifluoro-ethoxy)phosphinic acid] | 10 to 100 | 10 to 100 |
| O=P(O)(O)COC[C@H]1O[C@@H](n2ncc3c(NC4CCCC4)nc(Cl)nc32)[C@H](O)[C@@H]1O [Compound 240, ((((2R,3S,4R,5R)-5-(6-chloro-4-(cyclopentylamino)-1H-pyrazolo[3,4-d]pyrimidin-1-yl)-3,4-dihydroxytetrahydrofuran-2-yl)methoxy)methyl)phosphonic acid] | < 10 | < 10 |
| O=P(O)(O)COC[C@H]1O[C@@H](n2ccc3c(NC4CCCC4)nc(C#CCO)nc32)[C@H](O)[C@@H]1O [Compound 243, [(2R,3S,4R,5R)-5-[4-(cyclopentylamino)-2-(3-hydroxyprop-1-ynyl)pyrrolo[2,3-d]-pyrimidin-7-yl]-3,4-dihydroxy-tetrahydro-furan-2-yl]methoxy-methylphosphonic acid] | < 10 | < 10 |
| C#Cc1nc(NC2CCCC2)c2ccn([C@@H]3O[C@H](COCP(=O)(O)O)[C@@H](O)[C@H]3O)c2n1 [Compound 244, [(2R,3S,4R,5R)-5-[4-(cyclopentylamino)-2-ethynyl-pyrrolo[2,3-d]-pyrimidin-7-yl]-3,4-dihydroxy-tetrahydro-furan-2-yl]methoxy-methylphosphonic acid] | < 10 | < 10 |
| COc1nc(NC2CCCC2)c2ccn([C@@H]3O[C@H](COCP(=O)(O)O)[C@@H](O)[C@H]3O)c2n1 [Compound 247, [(2R,3S,4R,5R)-5-[4-(cyclopentylamino)-2-methoxy-pyrrolo[2,3-d]pyrimidin-7-yl]-3,4-dihydroxy-tetrahydro-furan-2-yl]methoxy-methylphosphonic acid] | 10 to 100 | 10 to 100 |
| O=P(O)(O)COC[C@H]1O[C@@H](n2ccc3c(NC4CCCC4)nc(Oc4cccnc4)nc32)[C@H](O)[C@@H]1O [Compound 248, [(2R,3S,4R,5R)-5-[4-(cyclopentylamino)-2-(3-pyridyloxy)pyrrolo-[2,3-d]pyrimidin-7-yl]-3,4-dihydroxy-tetra-hydrofuran-2-yl]meth-oxymethylphosphonic acid] | 100 to 1000 | 100 to 1000 |
| O=P(O)(O)COC[C@H]1O[C@@H](n2ccc3c(NC4CCCC4)nc(O)nc32)[C@H](O)[C@@H]1O [Compound 250, [(2R,3S,4R,5R)-5-[4-(cyclopentylamino)-2-hydroxy-pyrrolo[2,3-d]pyrimidin-7-yl]-3,4-dihydroxy-tetrahydro-furan-2-yl]methoxy-methylphosphonic acid] | 10 to 100 | 10 to 100 |
| COCC#Cc1nc(NC2CCCC2)c2ccn([C@@H]3O[C@H](COCP(=O)(O)O)[C@@H](O)[C@H]3O)c2n1 [Compound 252, [(2R,3S,4R,5R)-5-[4-(cyclopentylamino)-2-(3-methoxyprop-1-ynyl)pyrrolo[2,3-d]-pyrimidin-7-yl]-3,4-dihydroxy-tetrahydro-furan-2-yl]methoxy-methylphosphonic acid] | < 10 | < 10 |
| CC(C)C#Cc1nc(NC2CCCC2)c2ccn([C@@H]3O[C@H](COCP(=O)(O)O)[C@@H](O)[C@H]3O)c2n1 [Compound 253, [(2R,3S,4R,5R)-5-[4-(cyclopentylamino)-2-(3-methylbut-1-ynyl)pyrrolo[2,3-d]-pyrimidin-7-yl]-3,4-dihydroxy-tetrahydro-furan-2-yl]methoxy-methylphosphonic acid] | < 10 | < 10 |
| CC(C)(C)C#Cc1nc(NC2CCCC2)c2ccn([C@@H]3O[C@H](COCP(=O)(O)O)[C@@H](O)[C@H]3O)c2n1 [Compound 254, [(2R,3S,4R,5R)-5-[4-(cyclopentylamino)-2-(3,3-dimethylbut-1-ynyl)pyrrolo[2,3-d]-pyrimidin-7-yl]-3,4-dihydroxy-tetrahydro-furan-2-yl]methoxy-methylphosphonic acid] | 100 to 1000 | 100 to 1000 |
| O=P(O)(O)COC[C@H]1O[C@@H](n2ccc3c(NC4CCCC4)nc(C#CC4CC4)nc32)[C@H](O)[C@@H]1O [Compound 255, [(2R,3S,4R,5R)-5-[4-(cyclopentylamino)-2-(2-cyclopropyl-ethynyl)pyrrolo[2,3-d]-pyrimidin-7-yl]-3,4-dihydroxy-tetrahydro-furan-2-yl]methoxy-methylphosphonic acid] | < 10 | < 10 |
| C[C@H](O)C#Cc1nc(NC2CCCC2)c2ccn([C@@H]3O[C@H](COCP(=O)(O)O)[C@@H](O)[C@H]3O)c2n1 [Compound 256, [(2R,3S,4R,5R)-5-[4-(cyclopentylamino)-2-[(3S)-3-hydroxybut-1-ynyl]pyrrolo[2,3-d]-pyrimidin-7-yl]-3,4-dihydroxy-tetrahydro-furan-2-yl]methoxy-methylphosphonic acid] | < 10 | < 10 |
| O=P(O)(O)COC[C@H]1O[C@@H](n2ccc3c(NC4CCCC4)nc(OCCO)nc32)[C@H](O)[C@@H]1O [Compound 257, ((((2R,3S,4R,5R)-5-(4-(cyclopentylamino)-2-(2-hydroxyethoxy)-7H-pyrrolo[2,3-d]pyrimidin-7-yl)-3,4-dihydroxytetrahydrofuran-2-yl)methoxy)methyl)phosphonic acid] | < 10 | < 10 |
| O=P(O)(O)COC[C@H]1O[C@@H](n2ccc3c(NC4CCCC4)nc(OCCCO)nc32)[C@H](O)[C@@H]1O [Compound 258, [(2R,3S,4R,5R)-5-[4-(cyclopentylamino)-2-(3-hydroxypropoxy)-pyrrolo[2,3-d]pyrimidin-7-yl]-3,4-dihydroxy-tetrahydrofuran-2-yl]-methoxymethylphos-phonic acid] | 10 to 100 | < 10 |
| COCCOc1nc(NC2CCCC2)c2ccn([C@@H]3O[C@H](COCP(=O)(O)O)[C@@H](O)[C@H]3O)c2n1 [Compound 260, [(2R,3S,4R,5R)-5-[4-(cyclopentylamino)-2-(2-methoxyethoxy)-pyrrolo[2,3-d]-pyrimidin-7-yl]-3,4-dihydroxy-tetrahydro-furan-2-yl]methoxy-methylphosphonic acid] | 10 to 100 | 10 to 100 |
| C[C@@H](O)COc1nc(NC2CCCC2)c2ccn([C@@H]3O[C@H](COCP(=O)(O)O)[C@@H](O)[C@H]3O)c2n1 [Compound 261, [(2R,3S,4R,5R)-5-[4-(cyclopentylamino)-2-[(2R)-2-hydroxy-propoxy]pyrrolo[2,3-d]pyrimidin-7-yl]-3,4-dihydroxy-tetrahydro-furan-2-yl]methoxy-methylphosphonic acid] | < 10 | < 10 |
| CCOc1nc(NC2CCCC2)c2ccn([C@@H]3O[C@H](COCP(=O)(O)O)[C@@H](O)[C@H]3O)c2n1 [Compound 262, [(2R,3S,4R,5R)-5-[4-(cyclopentylamino)-2-ethoxy-pyrrolo[2,3-d]-pyrimidin-7-yl]-3,4-dihydroxy-tetrahydro-furan-2-yl]methoxy-methylphosphonic acid] | 10 to 100 | 10 to 100 |
| CC(O)COc1nc(NC2CCCC2)c2ccn([C@@H]3O[C@H](COCP(=O)(O)O)[C@@H](O)[C@H]3O)c2n1 (stereo partly drawn) [Compound 263, [(2R,3S,4R,5R)-5-[4-(cyclopentylamino)-2-(2-hydroxypropoxy)-pyrrolo[2,3-d]pyrimidin-7-yl]-3,4-dihydroxy-tetrahydrofuran-2-yl]-methoxymethylphos-phonic acid] | < 10 | < 10 |
| C[C@H](Nc1nc(Cl)nc2c1cnn2[C@@H]1O[C@H](COCP(=O)(O)O)[C@@H](O)[C@H]1O)c1ccc(F)cc1 [Compound 265, [(2R,3S,4R,5R)-5-[6-chloro-4-[[(1S)-1-(4-fluorophenyl)ethyl]-amino]pyrazolo[3,4-d]-pyrimidin-1-yl]-3,4-dihydroxy-tetrahydro-furan-2-yl]methoxy-methylphosphonic acid] | 10 to 100 | 10 to 100 |
| CC#Cc1nc(NC2CCCC2)c2ccn([C@@H]3O[C@H](COCP(=O)(O)O)[C@@H](O)[C@H]3O)c2n1 [Compound 266, [(2R,3S,4R,5R)-5-[4-(cyclopentylamino)-2-prop-1-ynyl-pyrrolo-[2,3-d]pyrimidin-7-yl]-3,4-dihydroxy-tetrahydrofuran-2-yl]-methoxymethylphos-phonic acid] | < 10 | < 10 |
| C[C@@H](O)C#Cc1nc(NC2CCCC2)c2ccn([C@@H]3O[C@H](COCP(=O)(O)O)[C@@H](O)[C@H]3O)c2n1 [Compound 267, [(2R,3S,4R,5R)-5-[4-(cyclopentylamino)-2-[(3R)-3-hydroxybut-1-ynyl]pyrrolo[2,3-d]-pyrimidin-7-yl]-3,4-dihydroxy-tetrahydro-furan-2-yl]methoxy-methylphosphonic acid] | < 10 | < 10 |

Reference: patent publication US11591355B2 (Peloton Therapeutics, Inc., priority 2017, dated 2023)
